The results in this text go back to PubChem BioAssay (NCI).

Several values for one entry are separate records, joined by “and”; a condition that tells them apart may be missing. Equal entries are not always repeated.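 Five concentrations, 48 hours, 96-well plates. GI50 = concentration required for 50% inhibition of growth. TGI marks complete inhibition of growth.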

Among the test systems are LXFL 529 NSCLC; UACC-257 melanoma; SK-MEL-28 melanoma; SNB-78 CNS; SK-MEL-2 melanoma; 786-0 renal; SK-OV-3 ovarian; TK-10 renal; K-562 leukemia; BT-549 breast.
Common to all, as to experiment: inhibition of tumour cell growth, NCI panel, 48 h

With `CC1[C@@H]2[C@@H](C=C3C4CCC5Cc6nc7c(nc6C[C@@]5(C)C4C[C@H](O)[C@]32CO)CC2CCC3C4=C[C@H]5O[C@@]6(O[C@@](C)(CO)C[C@@H]6O)C(C)[C@@]5(O)[C@]4(C)[C@@H](O)CC3[C@]2(C)C7)O[C@]12CCC(C)(C)O2` (stereo not given in full), the TGI in the experiment on LXFL 529 NSCLC is 0.0713 µM; in the experiment on UACC-257 melanoma it was 0.305 µM and 0.392 µM; in the experiment on SK-MEL-28 melanoma, 0.238 µM; in the experiment on SNB-78 CNS, 0.34 µM and 0.642 µM; in the experiment on SK-MEL-2 melanoma, 0.455 µM and 0.284 µM; in the experiment with 786-0 renal, 0.534 µM. For the same compound, the TGI in the experiment with SK-OV-3 ovarian is 0.0991 µM and 0.0224 µM. In addition, the GI50 was under 0.000365 µM in the experiment on SNB-78 CNS, 0.0114 µM in the experiment with SK-MEL-2 melanoma and under 0.000365 µM with SK-OV-3 ovarian.

`CCC(C)CN1C(=O)NC(C)(Cc2ccccc2)C1=O` (stereo not given): the TGI in the experiment on LXFL 529 NSCLC, with UACC-257 melanoma, in the experiment on SK-MEL-28 melanoma, with SNB-78 CNS, in the experiment with SK-MEL-2 melanoma and in the experiment on 786-0 renal was over 100 µM throughout. In the experiment on TK-10 renal, this compound yielded a TGI of over 100 µM.

Consider `N=C(c1ccccc1)N(c1ccccc1)c1ccccc1`, for which the TGI with LXFL 529 NSCLC, in the experiment on UACC-257 melanoma, in the experiment with SK-MEL-28 melanoma, in the experiment on SNB-78 CNS, with SK-MEL-2 melanoma and in the experiment with 786-0 renal was over 100 µM in each case. Further, the TGI with TK-10 renal was over 100 µM.

As to `C=CCC1OC(C)(C)Oc2ccc(OCOCCOC)cc21` (stereo not given), the TGI in the experiment with LXFL 529 NSCLC, with UACC-257 melanoma, in the experiment on SK-MEL-28 melanoma, in the experiment with K-562 leukemia, in the experiment on SK-MEL-2 melanoma and in the experiment on 786-0 renal was over 100 µM each time. Further, the TGI with SK-OV-3 ovarian and in the experiment on TK-10 renal was over 100 µM each time.

As to `N#Cc1cccc(N2C(=O)c3c(c(-c4ccccc4)c(-c4ccc(Sc5ccc(-c6c(-c7ccccc7)c7c(c(-c8ccccc8)c6-c6ccccc6)C(=O)N(c6cccc(C#N)c6)C7=O)cc5)cc4)c(-c4ccccc4)c3-c3ccccc3)C2=O)c1`, the TGI with LXFL 529 NSCLC, with UACC-257 melanoma, in the experiment on SK-MEL-28 melanoma, with K-562 leukemia, with SNB-78 CNS and in the experiment with SK-MEL-2 melanoma was over 100 µM throughout. Also, the TGI with 786-0 renal and in the experiment on TK-10 renal was over 100 µM each time.

Regarding `CC1CC2C3CC(F)C4=CC(=O)C=CC4(C)C3(F)C(O)CC2(C)C1(O)C(=O)COC(=O)C(C)(C)C` (stereo not given), the TGI with UACC-257 melanoma, in the experiment with SK-MEL-28 melanoma, in the experiment on K-562 leukemia, in the experiment with SNB-78 CNS, in the experiment with SK-MEL-2 melanoma and in the experiment with 786-0 renal was over 100 µM throughout. For the same compound, in the experiment with TK-10 renal, the TGI is over 100 µM.

`COc1ccc(S(=O)(=O)NC(C)C(=O)O)cc1` (stereo not given): the TGI with LXFL 529 NSCLC, with UACC-257 melanoma, with SK-MEL-28 melanoma, in the experiment with K-562 leukemia, in the experiment on SK-MEL-2 melanoma and in the experiment with 786-0 renal was over 100 µM in each case. Moreover, the TGI in the experiment on SK-OV-3 ovarian and with TK-10 renal was over 100 µM each time.

As for `O=C(O)CN(c1ccccc1)S(=O)(=O)c1ccc(NC(=O)c2ccccc2)cc1`, the TGI in the experiment on LXFL 529 NSCLC, in the experiment with UACC-257 melanoma, in the experiment on SK-MEL-28 melanoma, in the experiment with K-562 leukemia, with SK-MEL-2 melanoma and in the experiment on 786-0 renal was over 100 µM in each case. Moreover, the TGI in the experiment on SK-OV-3 ovarian and with TK-10 renal was over 100 µM throughout.

With `NNC(=S)N/N=C(\CCCC(=O)NCCc1ccccc1)CC(=O)c1ccccc1`, the TGI in the experiment with LXFL 529 NSCLC, in the experiment with UACC-257 melanoma, in the experiment on SK-MEL-28 melanoma, with SNB-78 CNS, in the experiment with SK-MEL-2 melanoma and with 786-0 renal was over 100 µM in each case. This compound showed a TGI in the experiment on TK-10 renal of over 100 µM.

For `CC(C)(C)OC(=O)NCCNC1=CC(=O)c2nc3ccccc3c3ccnc1c23`, the GI50 in the experiment on UACC-257 melanoma is 23.5 µM; in the experiment with SK-MEL-28 melanoma it was 13.3 µM; in the experiment with K-562 leukemia it was 0.131 µM; in the experiment with BT-549 breast, 20.5 µM; with SK-MEL-2 melanoma, 28.4 µM; with 786-0 renal, 28.5 µM. In addition, the GI50 is 43.3 µM in the experiment on SK-OV-3 ovarian and 32.4 µM in the experiment on TK-10 renal. For the same compound, the TGI with UACC-257 melanoma was 75.5 µM; with SK-MEL-28 melanoma it was 28.9 µM; in the experiment with K-562 leukemia it was over 100 µM; in the experiment on BT-549 breast it was 51.7 µM; in the experiment with SK-MEL-2 melanoma, 85.1 µM; in the experiment on 786-0 renal it was over 100 µM. The TGI in the experiment on SK-OV-3 ovarian was over 100 µM; with TK-10 renal it was 99.7 µM.

With `O=[N+]([O-])c1ccc(Nc2ccccc2-c2ccccc2)c2nonc12`, the GI50 in the experiment on UACC-257 melanoma is 12.3 µM; in the experiment on SK-MEL-28 melanoma, 17.2 µM; in the experiment on K-562 leukemia, 18 µM; with BT-549 breast it was 11.5 µM; in the experiment with SK-MEL-2 melanoma, 6.16 µM; in the experiment with 786-0 renal, 12.6 µM. Moreover, the GI50 with SK-OV-3 ovarian was 22 µM; in the experiment on TK-10 renal it was 22.8 µM. The TGI is 79.1 µM in the experiment with UACC-257 melanoma; 45.3 µM with SK-MEL-28 melanoma; over 100 µM in the experiment on K-562 leukemia; 28.8 µM in the experiment on BT-549 breast; 20.3 µM in the experiment on SK-MEL-2 melanoma; 32.6 µM in the experiment with 786-0 renal. Further, the TGI in the experiment with SK-OV-3 ovarian was over 75.7 µM; in the experiment on TK-10 renal, 59.6 µM.

For `c1ccc(SC2(Sc3ccccc3)CCCC2)cc1`, the TGI in the experiment on UACC-257 melanoma, in the experiment with SK-MEL-28 melanoma, in the experiment with K-562 leukemia, with SNB-78 CNS, in the experiment on SK-MEL-2 melanoma and in the experiment with 786-0 renal was over 100 µM each time. The TGI in the experiment on SK-OV-3 ovarian and with TK-10 renal was over 100 µM in each case.

For `COc1cccc(C2CC(c3cc(OC)c(OC)c(OC)c3)=NN2)c1` (stereo not given), the GI50 was 12.7 µM in the experiment with UACC-257 melanoma; 17.8 µM with SK-MEL-28 melanoma; 4.19 µM with K-562 leukemia; 3.35 µM in the experiment on BT-549 breast; 13.2 µM with SK-MEL-2 melanoma; 13.7 µM in the experiment with 786-0 renal. Moreover, the GI50 was 24.1 µM with SK-OV-3 ovarian and 23.7 µM in the experiment with TK-10 renal. For the same compound, the TGI in the experiment with UACC-257 melanoma was 36.4 µM; in the experiment on SK-MEL-28 melanoma, over 100 µM; with K-562 leukemia, over 100 µM; in the experiment with BT-549 breast, 19.1 µM; in the experiment with SK-MEL-2 melanoma it was 54.6 µM; in the experiment on 786-0 renal it was 56.4 µM. Also, the results for the TGI in the experiment with SK-OV-3 ovarian and in the experiment with TK-10 renal were 72.2 µM and 85.2 µM, respectively.

Turning to `C=CC(=O)Nc1ccc(Nc2nccc(-c3ccc(N4CCCC4)c(C#N)c3)n2)cc1`, the GI50 with UACC-257 melanoma is 5.37 µM; in the experiment with SK-MEL-28 melanoma it was 4 µM; in the experiment with K-562 leukemia it was 5.94 µM; with BT-549 breast, over 25 µM; with SK-MEL-2 melanoma it was 22.7 µM; in the experiment with 786-0 renal, 0.663 µM. Further, the GI50 in the experiment with SK-OV-3 ovarian was over 25 µM; with TK-10 renal, 10.5 µM. Moreover, the TGI in the experiment on UACC-257 melanoma is 17 µM; in the experiment with SK-MEL-28 melanoma, 13.1 µM; with K-562 leukemia, over 25 µM; with BT-549 breast, over 25 µM; in the experiment with SK-MEL-2 melanoma, over 25 µM; with 786-0 renal, 3.87 µM. The TGI in the experiment with SK-OV-3 ovarian and with TK-10 renal was over 25 µM throughout.

For the compound `CC/C(Cc1ccccc1)=C(\c1ccc(OCCN2CCCCCC2)cc1)c1ccc(OC(=O)NCc2ccccc2)cc1`, the GI50 was 3.8 µM in the experiment on UACC-257 melanoma; 1.44 µM in the experiment with SK-MEL-28 melanoma; 0.898 µM in the experiment with K-562 leukemia; 6.74 µM with BT-549 breast; 8.65 µM in the experiment on SK-MEL-2 melanoma; 1.38 µM in the experiment on 786-0 renal. Further, the GI50 is 7.59 µM with SK-OV-3 ovarian and 8.2 µM with TK-10 renal. In addition, the TGI was 11.3 µM in the experiment on UACC-257 melanoma; 5.17 µM in the experiment on SK-MEL-28 melanoma; 2.33 µM in the experiment on K-562 leukemia; 14.1 µM in the experiment with BT-549 breast; 17.7 µM in the experiment with SK-MEL-2 melanoma; 4.43 µM in the experiment on 786-0 renal. Besides, the TGI with SK-OV-3 ovarian was found to be 15.2 µM; in the experiment on TK-10 renal, 16 µM.

Consider `CO[C@H](C(=O)[C@@H](O)[C@@H](C)O)[C@@H]1Cc2cc3cc(O[C@H]4C[C@@H](O[C@H]5C[C@@H](O)[C@H](O)C(C)O5)[C@H](O)C(C)O4)c(C)c(O)c3c(O)c2C(=O)[C@H]1O[C@H]1C[C@@H](O[C@H]2C[C@@H](O[C@H]3C[C@@H](OC)[C@H](O)C(C)O3)[C@@H](O)C(C)O2)C(O)(O)C(C)O1` (stereo not given in full), for which the GI50 in the experiment with UACC-257 melanoma was 0.0371 µM; in the experiment with SK-MEL-28 melanoma, 0.0439 µM; with K-562 leukemia, 0.19 µM; with BT-549 breast, 0.107 µM; with SK-MEL-2 melanoma, 0.0551 µM; with 786-0 renal, 0.164 µM. Further, the GI50 was 0.113 µM with SK-OV-3 ovarian and 0.15 µM in the experiment on TK-10 renal. Further, the TGI with UACC-257 melanoma is 0.511 µM; in the experiment with SK-MEL-28 melanoma it was 1.11 µM; in the experiment on K-562 leukemia, over 25 µM; in the experiment with BT-549 breast, 1.64 µM; with SK-MEL-2 melanoma it was 0.592 µM; in the experiment on 786-0 renal it was over 25 µM. Besides, the results for the TGI in the experiment with SK-OV-3 ovarian and in the experiment on TK-10 renal were over 25 µM and over 24.1 µM, respectively.

Regarding `CN1CCN(c2ccc(C(=O)Nc3n[nH]c4ccc(Cc5cc(F)cc(F)c5)cc34)c(NC3CCOCC3)c2)CC1`, the GI50 is 3.72 µM and 1.42 µM in the experiment on UACC-257 melanoma; 1.6 µM and 1.58 µM in the experiment on SK-MEL-28 melanoma; 1.78 µM and 1.69 µM in the experiment with K-562 leukemia; 5.61 µM and 1.8 µM in the experiment with BT-549 breast; 4.5 µM and 1.86 µM in the experiment with SK-MEL-2 melanoma; 1.41 µM and 1.31 µM in the experiment on 786-0 renal. In addition, the GI50 with SK-OV-3 ovarian is 6.65 µM and 1.7 µM; in the experiment on TK-10 renal, 2.35 µM and 1.42 µM. The TGI in the experiment on UACC-257 melanoma was > 10 µM and 2.82 µM; in the experiment on SK-MEL-28 melanoma it was 3.15 µM and 2.95 µM; in the experiment with K-562 leukemia it was 4.83 µM and 3.61 µM; with BT-549 breast it was > 10 µM and 3.28 µM; in the experiment on SK-MEL-2 melanoma it was > 10 µM and 3.53 µM; with 786-0 renal, 2.99 µM and 2.62 µM. For the same compound, the TGI in the experiment with SK-OV-3 ovarian is > 10 µM and 3.19 µM; in the experiment on TK-10 renal it was > 10 µM and 2.78 µM.
